Laboratory results taken from patent US4610982A, “Anti-inflammatory benzo- and thieno-1,2-thiazine-3-carboxamide 1,1-dioxide derivatives, compositions, and method of use therefor” (Pfizer Inc., priority 1985, dated 1986).

Legend:
lipoxygenase = lipoxygenase inhibition; format: biochemical
[1] = system: carrageenin-induced rat foot edema; test: carrageenin-induced rat foot edema test; format: in vivo; conditions: 32 mg./kg. dose level, oral route; rat hind paw edema three hours after carrageenin injection
Source text: (§1) The novel 2-acetoxybenzoyl and ring-substituted α-arylpropionyl oxicam esters of the present invention are all readily adapted to therapeutic use as anti-arthritic agents. […] A. Winter et al., Proc. Soc. Exp. Biol. Med., Vol. 111, p. […] Additionally, hydrolysis of this novel product in vivo simultaneously produces two different anti-inflammatory compounds of known value (viz., piroxicam and ketoprofen). The other oxicam ester compounds of this invention also afford similar results.
In this test, anti-inflammatory activity is determined as the percent inhibition of edema formation in the hind paw of male albino rats (weighing 150-190g.) in response to a sub-plantar injection of carrageenin. The carrageenin is injected as a 1% aqueous suspension (0.015 ml.) one hour after oral administration of the drug, which is normally given in the form of an aqueous solution. Edema formation is then assessed by measuring the volume of the injected paw initially as well as three hours after the carrageenin injection. The increase in volume three hours after carrageenin injection constitutes the individual response. […]

cyclooxygenase = cyclooxygenase (Homo sapiens, UniProt P23219); test: cyclooxygenase inhibition; format: biochemical
Source text: as §1

cyclooxygenase, sequence (P23219 24-599): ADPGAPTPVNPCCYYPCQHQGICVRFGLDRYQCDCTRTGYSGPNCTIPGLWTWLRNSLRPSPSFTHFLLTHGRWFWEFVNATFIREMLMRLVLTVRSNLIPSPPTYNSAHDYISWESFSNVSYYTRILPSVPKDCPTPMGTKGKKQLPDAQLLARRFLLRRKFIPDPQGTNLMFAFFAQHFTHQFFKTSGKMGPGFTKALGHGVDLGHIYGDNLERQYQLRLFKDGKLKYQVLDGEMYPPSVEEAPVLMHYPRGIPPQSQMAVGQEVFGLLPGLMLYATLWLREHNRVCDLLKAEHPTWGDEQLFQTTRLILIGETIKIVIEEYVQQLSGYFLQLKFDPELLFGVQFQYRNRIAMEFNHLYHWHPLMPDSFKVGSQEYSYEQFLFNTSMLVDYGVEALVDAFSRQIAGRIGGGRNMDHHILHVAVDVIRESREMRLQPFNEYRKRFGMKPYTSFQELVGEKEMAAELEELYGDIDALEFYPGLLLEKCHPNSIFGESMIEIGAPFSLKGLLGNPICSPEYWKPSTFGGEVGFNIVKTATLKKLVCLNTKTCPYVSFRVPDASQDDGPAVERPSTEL

For `CC(C(=O)OC1=C(C(=O)Nc2ccccn2)N(C)S(=O)(=O)c2ccccc21)c1cccc(C(=O)c2ccccc2)c1` (stereo not drawn) [Example 3, 4-[α-(3-benzoylphenyl)propionyloxy]-2-methyl-N-(2-pyridinyl)-2H-1,2-benzothiazine-3-carboxamide 1,1-dioxide], the IC50 (lipoxygenase) was 0.02 µM, the inhibition in swelling [1] was 64% and the IC50 (cyclooxygenase) was 10 µM.
